Read-outs that look alike come from different tables or passages of the source.
How the values were obtained:
[1] = target: T1, human glycine transporter 1b cDNA (GlyT1) (Homo sapiens, UniProt P48067); experiment: Inhibition of glycine transporter 1 in a cellular assay ([3H] glycine uptake into CHO cells); assay type: cell-based
T1 construct: expressed in transfected cells
T1 sequence (P48067 1-652 isoform P48067-3): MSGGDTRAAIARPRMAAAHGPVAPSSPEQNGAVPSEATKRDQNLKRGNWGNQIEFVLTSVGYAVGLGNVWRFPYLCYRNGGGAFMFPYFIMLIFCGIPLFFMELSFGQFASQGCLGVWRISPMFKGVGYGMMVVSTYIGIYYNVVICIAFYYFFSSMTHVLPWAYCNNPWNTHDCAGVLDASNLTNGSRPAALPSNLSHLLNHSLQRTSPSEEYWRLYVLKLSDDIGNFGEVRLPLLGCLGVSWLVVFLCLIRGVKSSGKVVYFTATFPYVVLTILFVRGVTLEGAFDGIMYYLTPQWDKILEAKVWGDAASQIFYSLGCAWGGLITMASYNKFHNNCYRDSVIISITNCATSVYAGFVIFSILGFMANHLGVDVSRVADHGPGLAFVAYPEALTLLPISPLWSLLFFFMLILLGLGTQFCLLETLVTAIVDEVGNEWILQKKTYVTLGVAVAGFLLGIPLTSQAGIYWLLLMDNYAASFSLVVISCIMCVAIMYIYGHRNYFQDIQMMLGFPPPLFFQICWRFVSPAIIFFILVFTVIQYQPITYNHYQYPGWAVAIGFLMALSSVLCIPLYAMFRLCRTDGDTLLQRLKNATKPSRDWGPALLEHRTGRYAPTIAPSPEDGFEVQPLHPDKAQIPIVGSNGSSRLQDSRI
Procedure: Cells were harvested by trypsinisation one day prior to the assay and were seeded in the above mentioned medium. Immediately prior to the assay, the medium was replaced by uptake buffer containing 150 mM NaCl, 1 mM CaCl2, 2.5 mM KCl, 2.5 mM MgCl2, 10 mM Glucose and 10 mM N-2-hydroxyethylpiperazine-N'-2-ethanesulfonic acid ("Hepes" buffer). […] Louis, USA) were used as known inhibitors of GlyT1. […] Data is shown as mean ± s.e.m., where the IC50 is stated as µM for pure compounds and as µg/mLfor extracts.

pCREB = experiment: Hippocampal slice cultures, immunohistochemistry of synaptic marker pCREB; assay type: cell-based, Wistar rats; details: relative activation vs sister cultures treated with buffer; 15 min treatment after 48 h in culture; also: key: ++++ shows a qualitative maximal activation; -- shows a reduced activation; ++ signifies a half-maximum activation; ± demonstrated no change in immunoreactivity
Procedure: (§1) Seven-day-old Wistar rats were decapitated using a guillotine. […] Transversal hippocampal slices (400 µm) were prepared using a vibrating blade microtome (VT1200S; Leica Microsystems (Schweiz) AG, Heerbrugg, Switzerland) in the same buffer. Hippocampal slices were individually placed on a membrane insert (Millicell Culture Plate Inserts, 0.4 µm) and cultivated at 35 °C, 5% CO2, 95% humidity in a medium containing a 1:1 mixture of BME and MEM (both from Invitrogen) containing 25% heat-inactivated horse serum, 1x GlutaMAX, 1x Penicillin/Streptomycin, 0.6% glucose and 1mM Kynurenic acid (Stoppini, Buchs and Muller (1991), J. Neurosci. Methods, 37(2), 173-82). After 48 h in culture, synaptic NMDA receptors were activated by addition of black pepper extract or its constituents for 15 min in 140 mM NaCl, 5 mM KCl, 1.3 mM CaCl2, 25 mM HEPES (pH 7.3), 33 mM D-glucose and 0.02 mM bicuculline methiodide. […] After the treatments, sections were washed and fixed for immunohistochemistry. Markers of enhanced synaptic activity, normally associated with long-term potentiation, representing an ex vivo model of learning and memory were quantitated (see Table 2, below). Table 2. […] The activation of any of these markers (or a combination thereof) is observed in classical LTP experiments. TABLE 2 […]

pMAPK = experiment: Hippocampal slice cultures, immunohistochemistry of synaptic marker pMAPK; assay type: cell-based, Wistar rats; details: relative activation vs sister cultures treated with buffer; 15 min treatment after 48 h in culture; also: key: ++++ shows a qualitative maximal activation; -- shows a reduced activation; ++ signifies a half-maximum activation; ± demonstrated no change in immunoreactivity
Procedure: as §1

GluR1 = experiment: Hippocampal slice cultures, immunohistochemistry of synaptic marker GluR1; assay type: cell-based, Wistar rats; details: relative activation vs sister cultures treated with buffer; 15 min treatment after 48 h in culture
Procedure: Seven-day-old Wistar rats were decapitated using a guillotine. […] Transversal hippocampal slices (400 µm) were prepared using a vibrating blade microtome (VT1200S; Leica Microsystems (Schweiz) AG, Heerbrugg, Switzerland) in the same buffer. Hippocampal slices were individually placed on a membrane insert (Millicell Culture Plate Inserts, 0.4 µm) and cultivated at 35 °C, 5% CO2, 95% humidity in a medium containing a 1:1 mixture of BME and MEM (both from Invitrogen) containing 25% heat-inactivated horse serum, 1x GlutaMAX, 1x Penicillin/Streptomycin, 0.6% glucose and 1mM Kynurenic acid (Stoppini, Buchs and Muller (1991), J. Neurosci. Methods, 37(2), 173-82). After 48 h in culture, synaptic NMDA receptors were activated by addition of black pepper extract or its constituents for 15 min in 140 mM NaCl, 5 mM KCl, 1.3 mM CaCl2, 25 mM HEPES (pH 7.3), 33 mM D-glucose and 0.02 mM bicuculline methiodide. […] After the treatments, sections were washed and fixed for immunohistochemistry. Markers of enhanced synaptic activity, normally associated with long-term potentiation, representing an ex vivo model of learning and memory were quantitated (see Table 2, below). Table 2. […] The activation of any of these markers (or a combination thereof) is observed in classical LTP experiments.

[2] = pure compounds, CHO cells expressing GlyT1, 60 nM [3H] glycine, 30 minutes at room temperature

IC50 ([1]; read-out: IC50 for tritiated glycine uptake, pure compounds, CHO cells expressing GlyT1, 60 nM [3H] glycine, 30 minutes at room temperature) [µM] | IC50 [1] [µM] | SMILES | IC50 for tritiated glycine uptake [1, 2] | pCREB (pCREB) | pMAPK (pMAPK) | GluR1 (GluR1)
0.02 | – | CN(CC[C@@H](Oc1ccc(C(F)(F)F)cc1)c1ccccc1)CC(=O)O [ORG24598, reference compound] | – | – | – | –
– | – | CC(C)CNC(=O)/C=C/C=C/c1ccc2c(c1)OCO2 [Piperlonguminine] | inactive | – | – | –
– | – | COc1cc(/C=C/C(=O)N2CCC=CC2=O)cc(OC)c1OC [Piperlongumine] | inactive | ± | ± | 412-931%
– | – | CNCC(=O)O [Sarcosine, reference compound] | – | ± | ± | –
– | – | NCC(=O)O [Glycine, reference compound] | – | ++ | ++ | –
– | 48.7 | O=C(/C=C/C=C/c1ccc2c(c1)OCO2)N1CCCCC1 [Piperine] | – | ± | ± | 119-1742%

From EP2289528A1, “Novel nutraceutical compositions containing black pepper or its constituents improving mental performance” (DSM IP Assets B.V., priority 2009, dated 2011)
